Test results from patent publication US20060280894A1, “Metal complexes as light-absorbing compounds in the information layer of optical data carriers” (priority 2003, published 2006).
Like-named read-outs stand apart in the source and are kept apart here. Marks after values point to notes of the source that are not given here.

Test: Absorption spectrum measured in solution
[1] = molar extinction coefficient at λmax, solvent as given for λmax

Row | SMILES | ε [L/mol/cm] | λ1/2-λ1/10 [nm] | λmax | also measured
1 | CCN(CC)c1ccc(N=Nc2nc(-c3ccccc3)ns2)c([N]([Ni][N](c2cc(N(CC)CC)ccc2N=Nc2nc(-c3ccccc3)ns2)P(=O)(OC)c2ccccc2)P(=O)(OC)c2ccccc2)c1 (centres unmarked) [Example 23] | 90126 | 61 | 538^5) nm | –
2 | CCN(CC)c1ccc(N=Nc2nc(C#N)c(C#N)[nH]2)c([N-]S(=O)(=O)N(C)C)c1.CCN(CC)c1ccc(N=Nc2nc(C#N)c(C#N)[nH]2)c([N-]S(=O)(=O)N(C)C)c1.[Ni+2] [Example 18] | – | – | – | λmax (in methanol): 518^4) nm; ε [1]: 92143 L/mol/cm; λ1/2-λ1/10 (on the long wavelength flank): 21 nm
3 | CCN(CC)c1ccc(N=Nc2nc(-c3ccccc3)ns2)c([N]([Ni][N](c2cc(N(CC)CC)ccc2N=Nc2nc(-c3ccccc3)ns2)S(=O)(=O)NCC(F)(F)C(F)F)S(=O)(=O)NCC(F)(F)C(F)F)c1 [Example 31] | – | – | – | λmax (in methylene chloride): 556 nm
4 | CCN(CC)c1ccc(N=Nc2nnc(C)s2)c([N]([Ni][N](c2cc(N(CC)CC)ccc2N=Nc2nnc(C)s2)S(=O)(=O)N(C)C)S(=O)(=O)N(C)C)c1 [Example 29] | – | – | – | λmax (in methylene chloride): 554 nm; ε [1]: 84070 L/mol/cm; λ1/2-λ1/10 (on the long wavelength flank): 26 nm
5 | CCN(CC)c1ccc(N=Nc2nc(-c3ccccc3)ns2)c([N-]S(=O)(=O)N(C)C)c1.CCN(CC)c1ccc(N=Nc2nc(-c3ccccc3)ns2)c([N-]S(=O)(=O)N(C)C)c1.[Ni+2] [Example 11] | 86514 | – | 530 nm | –
6 | CCN(CC)c1ccc(N=Nc2nc(C#N)c(C#N)[nH]2)c([N-]P(=O)(OCC(F)(F)C(F)F)OCC(F)(F)C(F)F)c1.CCN(CC)c1ccc(N=Nc2nc(C#N)c(C#N)[nH]2)c([N-]P(=O)(OCC(F)(F)C(F)F)OCC(F)(F)C(F)F)c1.[Ni+2] [Example 5] | 70893 | 21 | 510^4) nm | –
7 | CCN(CC)c1ccc(N=Nc2nc(-c3ccccc3)ns2)c([N-]S(=O)(=O)N(C)C)c1.CCN(CC)c1ccc(N=Nc2nc(-c3ccccc3)ns2)c([N-]S(=O)(=O)N(C)C)c1.[Co+2] [Example 12] | 92750 | 32 | 551 nm | –
8 | CCCNS(=O)(=O)[N-]c1cc(N(CC)CC)ccc1N=Nc1nc(C#N)c(C#N)[nH]1.CCCNS(=O)(=O)[N-]c1cc(N(CC)CC)ccc1N=Nc1nc(C#N)c(C#N)[nH]1.[Ni+2] [Example 6] | – | – | – | ε [1]: 34523 L/mol/cm; λ1/2-λ1/10 (on the long wavelength flank): 21 nm
9 | CCN(CC)c1cc([N]([Co][N](c2cc(N(CC)CC)c(C)cc2N=Nc2nc(-c3ccccc3)ns2)S(=O)(=O)N(C)C)S(=O)(=O)N(C)C)c(N=Nc2nc(-c3ccccc3)ns2)cc1C [Example 38] | – | – | 554^5) nm | –
10 | CCN(CC)c1cc([N]([Ni][N](c2cc(N(CC)CC)c(C)cc2N=Nc2nc(-c3ccccc3)ns2)S(=O)(=O)N(C)C)S(=O)(=O)N(C)C)c(N=Nc2nc(-c3ccccc3)ns2)cc1C [Example 36] | – | – | 552^5) nm | –
11 | CCN(CC)c1ccc(N=Nc2nnc(C)s2)c([N]([Co][N](c2cc(N(CC)CC)ccc2N=Nc2nnc(C)s2)S(=O)(=O)N(C)C)S(=O)(=O)N(C)C)c1 [Example 30] | – | – | – | λmax (in methylene chloride): 554 nm
12 | CCN(CC)c1ccc(N=Nc2nc(C#N)c(C#N)n2C)c([N-]P(=O)(OCC(F)(F)C(F)F)OCC(F)(F)C(F)F)c1.CCN(CC)c1ccc(N=Nc2nc(C#N)c(C#N)n2C)c([N-]P(=O)(OCC(F)(F)C(F)F)OCC(F)(F)C(F)F)c1.[Co+2] [Example 3] | 92203 | 33 | 538^5) nm | –
13 | CCN(CC)c1cc([N]([Ni][N](c2cc(N(CC)CC)c(OC)cc2N=Nc2nc(-c3ccccc3)ns2)S(=O)(=O)N(C)C)S(=O)(=O)N(C)C)c(N=Nc2nc(-c3ccccc3)ns2)cc1OC [Example 35] | – | – | 544 nm | –
14 | CCN(CC)c1ccc(N=Nc2nc(C#N)c(C#N)n2C)c([N-]S(=O)(=O)N(C)C)c1.CCN(CC)c1ccc(N=Nc2nc(C#N)c(C#N)n2C)c([N-]S(=O)(=O)N(C)C)c1.[Zn+2] [Example 17] | 111931 | 12 | – | –
15 | CCN(CC)c1ccc(N=Nc2nc(C#N)c(C#N)n2C)c([N-]S(=O)(=O)N(C)C)c1.CCN(CC)c1ccc(N=Nc2nc(C#N)c(C#N)n2C)c([N-]S(=O)(=O)N(C)C)c1.[Ni+2] [Example 15] | 107238 | 21 | 540 nm | –
16 | CCN(CC)c1ccc(N=Nc2nc(C#N)c(C#N)n2C)c([N-]P(=O)(OCC(F)(F)C(F)F)OCC(F)(F)C(F)F)c1.CCN(CC)c1ccc(N=Nc2nc(C#N)c(C#N)n2C)c([N-]P(=O)(OCC(F)(F)C(F)F)OCC(F)(F)C(F)F)c1.[Cu+2] [Example 4] | 88071 | 29 | 533^5) nm | –
17 | CCN(CC)c1ccc(N=Nc2nc(C#N)c(C#N)n2C)c([N-]S(=O)(=O)N(C)C)c1.CCN(CC)c1ccc(N=Nc2nc(C#N)c(C#N)n2C)c([N-]S(=O)(=O)N(C)C)c1.[Co+2] [Example 16] | 94990 | 33 | 543 nm | –
